Measurements: ChEMBL document CHEMBL6109164, “Discovery of Novel DDR1 Inhibitors through a Hybrid Virtual Screening Pipeline, Biological Evaluation and Molecular Dynamics Simulations” (ACS Med Chem Lett, 2025)
Active and inactive are the calls of the source. No cut-off for these calls is given here.

Assays:
Z-138 = assay: Cytotoxicity against human Z138 cells assessed as reduction in cell viability; assay type: functional, cell-based
[1] = target: Epithelial discoidin domain-containing receptor 1 (Homo sapiens) (UniProt Q08345); assay: Binding affinity to DDR1 (unknown origin) at VAL624 residue assessed as occupancy relative to control
[2] = target: Epithelial discoidin domain-containing receptor 1 (Homo sapiens) (UniProt Q08345); assay: Binding affinity to DDR1 (unknown origin) at LYS655 residue assessed as occupancy relative to control

Chain of Epithelial discoidin domain-containing receptor 1 (Homo sapiens) (Q08345 whole entry, the tested form may be a part): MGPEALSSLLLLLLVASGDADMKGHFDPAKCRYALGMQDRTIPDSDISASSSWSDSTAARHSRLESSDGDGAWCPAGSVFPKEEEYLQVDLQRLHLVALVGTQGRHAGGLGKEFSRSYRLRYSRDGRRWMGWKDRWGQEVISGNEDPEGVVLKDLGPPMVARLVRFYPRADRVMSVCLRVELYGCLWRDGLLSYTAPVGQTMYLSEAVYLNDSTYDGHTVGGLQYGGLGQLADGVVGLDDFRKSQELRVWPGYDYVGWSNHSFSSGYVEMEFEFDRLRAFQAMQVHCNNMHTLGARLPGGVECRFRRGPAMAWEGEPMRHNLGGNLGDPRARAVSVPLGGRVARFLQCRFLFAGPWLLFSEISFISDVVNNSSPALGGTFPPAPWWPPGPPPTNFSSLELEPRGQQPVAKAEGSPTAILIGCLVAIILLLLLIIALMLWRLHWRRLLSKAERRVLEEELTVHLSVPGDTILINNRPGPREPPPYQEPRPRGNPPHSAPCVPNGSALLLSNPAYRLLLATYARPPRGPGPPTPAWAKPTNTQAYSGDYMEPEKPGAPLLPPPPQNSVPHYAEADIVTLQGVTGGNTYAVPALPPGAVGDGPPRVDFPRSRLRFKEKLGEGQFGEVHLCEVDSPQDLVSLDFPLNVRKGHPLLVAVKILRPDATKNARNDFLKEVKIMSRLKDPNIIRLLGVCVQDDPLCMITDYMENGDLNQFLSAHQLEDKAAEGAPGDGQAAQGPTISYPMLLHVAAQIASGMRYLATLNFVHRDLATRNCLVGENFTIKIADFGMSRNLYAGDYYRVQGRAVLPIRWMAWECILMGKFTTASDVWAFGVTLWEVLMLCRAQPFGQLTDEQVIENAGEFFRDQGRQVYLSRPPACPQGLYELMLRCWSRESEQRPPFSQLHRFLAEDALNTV

Occ [1] | Occ [2] | SMILES | Activity (Z-138)
– | – | Cc1cc(Nc2cc(N3CCN(C)CC3)nc(Sc3ccc(NC(=O)C4CC4)cc3)n2)n[nH]1 | Active
82.8% | 69.9% | CN1CCN(c2ccc(C(=O)Nc3n[nH]c4ccc(Cc5cc(F)cc(F)c5)cc34)c(NC3CCOCC3)c2)CC1 | Active
